# Source: US9902696B2, “1,4-substituted piperidine derivatives” (Cephalon, Inc., priority 2015, dated 2018)
# Counter-ions that a name gives are not always drawn. Like-named read-outs stand apart in the source and are kept apart here.
# Target: T1, recombinant human baculovirus-expressed GST-tagged FASN (Homo sapiens, UniProt P49327)
# T1 construct: GST
# Assay: FASN enzyme activity assay, fluorescence-based detection of CoA with CPM
# Assay type: biochemical
# Details: 5 nM FASN, 150 μM NADPH, 10 μM acetyl-CoA, 25 μM malonyl-CoA, 90 minutes incubation
# Summary of the method: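 CoA product reacted with thiol-reactive CPM (diluted to 50 μM in 70% ethanol), read at 390/530 nm after 30 min. Preceding reaction: 90 min, 5 nM recombinant GST-FASN, 150 μM NADPH, 10 μM acetyl-CoA, 25 μM malonyl-CoA, pH 7.5 HEPES, 0.5% DMSO. IC50s fitted by nonlinear sigmoidal regression.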
# [1] = read-out: IC50 data for Compounds of Formulae I-V/V(a): Activity
# [2] = read-out: IC50 data for Additional Compounds of Formulae I-V(a): Activity
# T1 sequence (P49327 whole entry): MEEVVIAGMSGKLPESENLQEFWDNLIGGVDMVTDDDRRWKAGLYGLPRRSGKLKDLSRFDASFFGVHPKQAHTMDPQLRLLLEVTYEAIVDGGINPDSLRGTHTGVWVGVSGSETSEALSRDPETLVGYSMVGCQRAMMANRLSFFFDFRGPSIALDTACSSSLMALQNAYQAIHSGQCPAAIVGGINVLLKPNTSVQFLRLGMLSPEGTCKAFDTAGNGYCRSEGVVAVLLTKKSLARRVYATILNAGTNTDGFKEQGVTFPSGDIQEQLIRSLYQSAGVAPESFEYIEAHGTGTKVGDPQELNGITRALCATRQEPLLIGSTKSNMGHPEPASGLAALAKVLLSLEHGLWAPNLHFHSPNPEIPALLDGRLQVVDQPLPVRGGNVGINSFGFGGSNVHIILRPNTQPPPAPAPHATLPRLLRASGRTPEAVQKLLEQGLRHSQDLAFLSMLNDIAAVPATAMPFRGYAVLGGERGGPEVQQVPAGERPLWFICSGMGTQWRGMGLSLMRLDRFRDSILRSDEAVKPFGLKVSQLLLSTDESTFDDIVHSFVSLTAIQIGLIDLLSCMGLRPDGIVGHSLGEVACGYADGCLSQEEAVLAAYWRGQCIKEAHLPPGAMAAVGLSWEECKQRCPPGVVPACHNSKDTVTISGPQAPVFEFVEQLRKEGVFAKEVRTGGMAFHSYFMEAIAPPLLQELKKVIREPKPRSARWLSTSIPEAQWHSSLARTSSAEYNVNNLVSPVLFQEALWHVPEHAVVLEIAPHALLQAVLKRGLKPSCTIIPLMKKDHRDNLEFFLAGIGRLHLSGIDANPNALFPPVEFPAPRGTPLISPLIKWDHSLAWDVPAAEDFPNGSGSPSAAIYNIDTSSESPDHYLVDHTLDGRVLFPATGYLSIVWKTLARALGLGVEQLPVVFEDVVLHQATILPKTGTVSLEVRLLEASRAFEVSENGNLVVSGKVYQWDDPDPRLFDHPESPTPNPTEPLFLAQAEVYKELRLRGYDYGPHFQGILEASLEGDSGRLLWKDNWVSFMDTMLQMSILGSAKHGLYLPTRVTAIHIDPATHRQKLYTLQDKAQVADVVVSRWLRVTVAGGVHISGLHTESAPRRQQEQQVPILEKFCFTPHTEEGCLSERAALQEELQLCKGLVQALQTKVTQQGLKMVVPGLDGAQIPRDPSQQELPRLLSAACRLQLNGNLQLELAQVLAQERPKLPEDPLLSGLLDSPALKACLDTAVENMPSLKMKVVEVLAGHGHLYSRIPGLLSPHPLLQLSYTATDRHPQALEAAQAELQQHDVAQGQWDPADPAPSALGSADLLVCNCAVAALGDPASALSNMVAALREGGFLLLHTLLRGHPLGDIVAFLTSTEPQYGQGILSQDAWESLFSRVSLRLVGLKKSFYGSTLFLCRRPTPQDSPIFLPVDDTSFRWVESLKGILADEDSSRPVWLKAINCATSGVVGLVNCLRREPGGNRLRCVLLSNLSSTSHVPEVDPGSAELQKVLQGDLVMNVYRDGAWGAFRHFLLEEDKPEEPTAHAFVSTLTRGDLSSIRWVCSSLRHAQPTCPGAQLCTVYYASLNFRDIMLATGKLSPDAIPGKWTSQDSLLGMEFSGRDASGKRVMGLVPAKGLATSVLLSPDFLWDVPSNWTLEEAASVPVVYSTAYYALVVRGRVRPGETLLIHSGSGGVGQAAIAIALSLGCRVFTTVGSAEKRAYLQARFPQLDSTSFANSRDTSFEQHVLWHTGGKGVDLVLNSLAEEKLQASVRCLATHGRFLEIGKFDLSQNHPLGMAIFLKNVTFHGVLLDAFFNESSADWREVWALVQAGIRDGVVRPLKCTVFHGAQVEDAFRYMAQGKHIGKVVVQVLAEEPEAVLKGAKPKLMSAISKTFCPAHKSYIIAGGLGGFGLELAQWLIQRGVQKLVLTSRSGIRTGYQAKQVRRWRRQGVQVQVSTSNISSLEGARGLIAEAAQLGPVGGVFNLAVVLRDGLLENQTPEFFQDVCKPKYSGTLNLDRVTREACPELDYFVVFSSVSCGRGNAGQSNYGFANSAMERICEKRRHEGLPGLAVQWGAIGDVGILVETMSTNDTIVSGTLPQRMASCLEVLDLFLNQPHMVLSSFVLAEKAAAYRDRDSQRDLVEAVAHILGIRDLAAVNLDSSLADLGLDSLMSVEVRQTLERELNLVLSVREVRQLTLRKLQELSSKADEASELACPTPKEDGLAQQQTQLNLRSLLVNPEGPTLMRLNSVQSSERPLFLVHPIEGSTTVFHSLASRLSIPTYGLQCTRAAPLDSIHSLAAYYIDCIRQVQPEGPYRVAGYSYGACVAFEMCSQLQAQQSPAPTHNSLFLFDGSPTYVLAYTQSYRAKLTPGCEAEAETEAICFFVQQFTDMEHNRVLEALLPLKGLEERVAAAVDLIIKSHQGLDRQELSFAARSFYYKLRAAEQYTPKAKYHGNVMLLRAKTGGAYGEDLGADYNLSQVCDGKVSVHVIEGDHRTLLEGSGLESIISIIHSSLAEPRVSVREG
Compound,IC50 [1] [nM],IC50 [2] [nM]
"Cc1cc(-c2ccc(OC3CCN(C(=O)[C@H]4CCCO4)CC3)cc2)c2cccnc2c1 [Example 353, (R)-(4-(4-(7-Methylquinolin-5-yl)phenoxy)piperidin-1-yl)(tetrahydrofuran-2-yl)methanone]",1 to 99,
"Cc1c(-c2ccc(OC3CCN(C(=O)C4CC4)CC3)cc2)ccc2ncnn12 [Example 314, Cyclopropyl-{4-[4-(5-methyl-[1,2,4]triazolo[1,5-a]pyridin-6-yl)-phenoxy]-piperidin-1-yl}-methanone]",1000 to 10000,
"Cc1cnc(C)c2ccc(-c3ccc(OC4CCN(C(=O)C5CC5)CC4)cc3)cc12 [Example 470, Cyclopropyl-[4-[4-(1,4-dimethyl-6-isoquinolyl)phenoxy]-1-piperidyl]methanone, HCl]",100 to 999,
"CCC(=O)N1CCC(Oc2ccc(-c3ccc4cccnc4c3OCCN3CCN(C)CC3)cc2)CC1 [Example 177, 1-[4-[4-[8-[2-(4-Methylpiperazin-1-yl)ethoxy]-7-quinolyl]phenoxy]-1-piperidyl]propan-1-one, HCl]",1000 to 10000,
Cc1c(-c2ccc(OC3CCN(C(=O)C4CC4)CC3)cc2)cnc2ccccc12 [Example 61],1 to 99,
"CCC(=O)N1CC[C@H](Oc2ccc(-c3ccc4cccnc4c3C)cc2)[C@H](F)C1 (relative stereo) [Example 367, 1-{cis-3-Fluoro-4-[4-(8-methylquinolin-7-yl)-phenoxy]-piperidin-1-yl}-propan-1-one, HCl]",1000 to 10000,
"CONC(=O)N1CCC(Oc2ccc(-c3cnc4ccccc4c3C)cc2)CC1 [Example 82, 4-[4-(4-Methylquinolin-3-yl)-phenoxy]-piperidine-1-carboxylic acid methoxyamide]",1 to 99,
"COc1cc2ncc(-c3ccc(OC4CCN(C(=O)[C@H]5CCCO5)CC4)cc3)cc2cc1Cl [Example 449, {4-[4-(6-Chloro-7-methoxyquinolin-3-yl)-phenoxy]-piperidin-1-yl}-(R)-tetrahydrofuran-2-yl-methanone]",1000 to 10000,
"CCC(=O)N1CCC(Oc2ccc(-c3ccnc(Nc4ccccc4)c3)cc2)CC1 [Example 404, 1-{4-[4-(2-Phenylaminopyridin-4-yl)-phenoxy]-piperidin-1-yl}-propan-1-one]",1000 to 10000,
"Cc1c(-c2ccc(O[C@H]3CCN4C(=O)CC[C@H]4C3)cc2)ccc2cccnc12 (racemic) [Example 355, (±)-(7S,8aS)-7-(4-(8-Methylquinolin-7-yl)phenoxy)hexahydroindolizin-3 (2H)-one]",1000 to 10000,
"CCC(=O)N1CCC(Oc2ccc(-c3cnc4ccccc4c3N3CCN(C)CC3)cc2)CC1 [Example 239, 1-(4-{4-[4-(4-Methylpiperazin-1-yl)-quinolin-3-yl]-phenoxy}-piperidin-1-yl)-propan-1-one]",1000 to 10000,
"Cc1c(-c2ccc(O[C@@H]3C[C@H]4CC[C@@H](C3)N4C(=O)[C@H]3CCCO3)cc2)ccc2cccnc12 [Example 360, {exo-3-[4-(8-Methylquinolin-7-yl)-phenoxy]-8-aza-bicyclo[3.2.1]oct-8-yl}-(R)-tetrahydrofuran-2-yl-methanone, HCl]",100 to 999,
"CCC(=O)N1CCC(Oc2ccc(-c3ccc4cccnc4c3NCCN3CCCC3)cc2)CC1 [Example 335, 1-(4-{4-[8-(2-Pyrrolidin-1-yl-ethylamino)-quinolin-7-yl]-phenoxy}-piperidin-1-yl)-propan-1-one]",1000 to 10000,
"Cc1c(-c2ccc(OC3CCN(C(=O)OC4CCC4)CC3)cc2)ccc2cccnc12 [Example 561, Cyclobutyl 4-[4-(8-methyl-7-quinolyl)phenoxy]piperidine-1-carboxylate]",,1000 to 10000
"CCC(=O)N1CCC(Oc2ccc(-c3cc4ccccc4nc3OC)cc2)CC1 [Example 18, 1-{4-[4-(2-Methoxyquinolin-3-yl)-phenoxy]-piperidin-1-yl}-propan-1-one]",100 to 999,
"Cc1c(-c2ccc(OC3CCN(C(=O)N4CCCO4)CC3)cc2)ccc2cccnc12 [Example 75, Isoxazolidin-2-yl-{4-[4-(8-methyl-quinolin-7-yl)-phenoxy]-piperidin-1-yl}-methanone]",1 to 99,
"CCC(=O)N1CCC(Oc2ccc(-c3ccc4cccnc4c3)cc2OC)CC1 [Example 199, 1-[4-(2-Methoxy-4-quinolin-7-yl-phenoxy)-piperidin-1-yl]-propan-1-one]",1000 to 10000,
"CCC(=O)N1CCC(Oc2ccc(-c3cnc4cc(OC)c(Cl)cc4c3)cc2)CC1 [Example 447, 1-{4-[4-(6-Chloro-7-methoxyquinolin-3-yl)-phenoxy]-piperidin-1-yl}-propan-1-one]",1000 to 10000,
"COc1cc(OC2CCN(C(=O)C(C)C)CC2)ccc1-c1cnc2ccccc2c1 [Example 210, 1-[4-(3-Methoxy-4-quinolin-3-yl-phenoxy)-piperidin-1-yl]-2-methyl-propan-1-one]",1000 to 10000,
"COc1c(-c2ccc(OC3CCN(C(=O)C4(O)CC4)CC3)cc2)ccc2cccnc12 [Example 303, (1-Hydroxycyclopropyl)-{4-[4-(8-methoxy-quinolin-7-yl)-phenoxy]-piperidin-1-yl}-methanone]",1 to 99,

Compound,IC50 [1] [nM],IC50 [2] [nM]
"COc1ccc(-c2ccc(OC3CCN(C(=O)C(C)C)CC3)cc2)cc1OC [Example 492, 1-[4-(3′,4′-Dimethoxybiphenyl-4-yloxy)-piperidin-1-yl]-2-methyl-propan-1-one]",1000 to 10000,
"Nc1cc2cc(-c3ccc(OC4CCN(C(=O)C5CC5)CC4)cc3)ccc2cn1 [Example 423, {4-[4-(3-Aminoisoquinolin-6-yl)-phenoxy]-piperidin-1-yl}-cyclopropyl-methanone]",100 to 999,
"CCC(=O)N1CCC(Oc2ccc(-c3n[nH]c4ccccc34)cc2)CC1 [Example 248, 1-{4-[4-(1H-Indazol-3-yl)-phenoxy]-piperidin-1-yl}-propan-1-one]",100 to 999,
"O=C1CC[C@H](C(=O)N2CCC(Oc3ccc(-c4cnc5ccccc5c4)cc3)CC2)O1 [Example 120, (R)-5-[4-(4-Quinolin-3-yl-phenoxy)-piperidine-1-carbonyl]-dihydrofuran-2-one, HCl]",1 to 99,
"CC(C)C(=O)N1CCC(Sc2ccc(-c3cnc4ccccc4c3)cc2)CC1 [Example 522, 2-Methyl-1-(4-((4-(quinolin-3-yl)phenyl)thio)piperidin-1-yl)propan-1-one, HCl]",1000 to 10000,
"CCCNC(=O)N1CCC(Oc2ccc(-c3ccc4nccn4c3C)cc2)CC1 [Example 594, 4-[4-(5-Methylimidazo[1,2-a]pyridin-6-yl)phenoxy]-N-propyl-piperidine-1-carboxamide]",,1 to 99
"O=C([C@H]1CCCO1)N1CCC(Oc2ccc(-c3ccc4cnc(C5CC5)cc4c3)cc2)CC1 [Example 480, {4-[4-(3-Cyclopropylisoquinolin-6-yl)-phenoxy]-piperidin-1-yl}-(R)-tetra-hy drofuran-2-yl-methanone]",1 to 99,
"CCC(=O)N1CCC(Oc2ccc(-c3ccc(Cl)c(Cl)c3)cc2)CC1 [Example 500, 1-[4-(3′,4′-Dichlorobiphenyl-4-yloxy)-piperidin-1-yl]-propan-1-one]",1000 to 10000,
"O=C(N1CCC(Oc2ccc(-c3cc4ccccc4cn3)cc2)CC1)N1CCCO1 [Example 74, [4-(4-Isoquinolin-3-yl-phenoxy)-piperidin-1-yl]-isoxazolidin-2-yl-methanone]",1 to 99,
"CCC(=O)N1CCC(Oc2ccc(-c3ccc4ccccc4n3)cc2)CC1 [Example 40, 1-[4-(4-Quinolin-2-yl-phenoxy)-piperidin-1-yl]-propan-1-one]",100 to 999,
"Nc1c(-c2ccc(OC3CCN(C(=O)[C@H]4CCCO4)CC3)cc2)cnc2ccccc12 [Example 234, {4-[4-(4-Aminoquinolin-3-yl)-phenoxy]-piperidin-1-yl}-(R)-tetrahydro-furan-2-yl-methanone]",100 to 999,
"Cc1cc2cc(-c3ccc(OC4CCN(C(=O)[C@H]5CCCO5)CC4)cc3)ccc2cn1 [Example 437, {4-[4-(3-Methylisoquinolin-6-yl)-phenoxy]-piperidin-1-yl}-(R)-tetrahydro-furan-2-yl-methanone]",1 to 99,
"O=C(C1CC1)N1CCC(Oc2ccc(-c3ccc4cncn4c3)cc2)CC1 [Example 300, Cyclopropyl-[4-(4-imidazo[1,5-a]pyridin-6-yl-phenoxy)-piperidin-1-yl]-methanone]",1000 to 10000,
"O=C(C1CC1)N1CCC(Oc2ccc(-c3ccc4cccnc4c3O)cc2)CC1 [Example 189, Cyclopropyl-{4-[4-(8-hydroxyquinolin-7-yl)-phenoxy]-piperidin-1-yl}-methanone, HCl]",100 to 999,
"O=C([C@H]1CCCO1)N1CCC(Oc2ccc(-c3ccc4cccnc4c3Cl)cc2F)CC1 [Example 223, {4-[4-(8-Chloroquinolin-7-yl)-2-fluorophenoxy]-piperidin-1-yl}-(R)-tetrahydrofuran-2-yl-methanone]",1 to 99,
"CCC(=O)N1CCC(Oc2ccc(-c3cc(C)c4cccnc4c3)cc2)CC1 [Example 346, 1-(4-(4-(5-Methylquinolin-7-yl)phenoxy)piperidin-1-yl)propan-1-one, HCl]",100 to 999,
"CC(C)Oc1c(-c2ccc(OC3CCN(C(=O)C4CC4)CC3)cc2)ccc2cccnc12 [Example 170, Cyclopropyl-{4-[4-(8-isopropoxyquinolin-7-yl)-phenoxy]-piperidin-1-yl}-methanone, HCl]",100 to 999,
"CCC(=O)N1CCC(Oc2ccc(-c3cnc4ccccc4c3)cc2)CC1 [Example 2, 1-[4-(4-Quinolin-3-yl-phenoxy)-piperidin-1-yl]-propan-1-one]",1 to 99,
"O=C(C1CC1)N1CCC(Oc2ccc(-c3cnc4ccccc4n3)cc2)CC1 [Example 67, Cyclopropyl-[4-(4-quinoxalin-2-yl-phenoxy)-piperidin-1-yl]-methanone]",100 to 999,
